“And” between values parts separate entries of the source, which are not always exact repeats. Identical values can stand only once.
Test system: phospho-ERK in A549 (KRAS G12S) cells
Assay: Cell-based pERK (pERK:tERK) in A549 cells
Parameters: A549-pERK 10 uM, 2 h: unit not given here
Conditions: for A549-pERK (10 nM, 2 h): phospho- to total protein ratio normalized to DMSO control (Table 9); for A549-pERK 10 uM, 2 h: phospho- to total protein ratio normalized to DMSO control
Procedure: Media components, reagents and buffers for Western Blot: All cell culture media components were obtained from ThermoFisher Scientific. […] Laemmli sample loading 4× buffer (ThermoFisher Scientific, Cat No. NP0007). MOPS/SDS electrophoresis running buffer (GenScript, Cat No. M00138).
Subculture conditions: Adherent cells were grown to approximately 90% confluency, culture medium was aspirated and the cell layer was rinsed with PBS. […] Eight mL media was added, cells were spun down at 1000×g for 5 minutes. Cell pellet was re-suspended in 10 mL media and an appropriate volume was inoculated into a new culture flask.
Compound (drug) treatment: Cells were plated in a 6-well plate at a density of 250,000-300,000 cells/well in 3 mL media and incubated 37° C. in a humidified, 5% CO2 incubator. […] These solutions were added to the cells (3 uL/well), mixed by swirling the plate, and incubated at 37° C. in a humidified, 5% CO2 incubator for 2 hours.
Cell lysis and protein estimation: Cells were washed with PBS, and scraped in 50 μL of lysis buffer containing protease and phosphatase inhibitors. Cell lysates were stored at −20° C. Cell lysates were thawed and spun at 12,000 rpm for one minute, 3 ul of the supernatant was added to 500 μL of Coomassie blue reagent following by 500 μL of water. […] Protein standards were used (0-20 mg/mL) to calculate protein concentrations of test samples.
All samples were heated at 95° C. for 5 minutes, cooled to room temperature and spun down. […] After the run, gel was removed and protein transfer was done using iBlot for 7 minutes, as per manufacturer's recommendations. After the transfer, nitrocellulose membrane was incubated on a shaker in 5 mL of blocking buffer at room temperature for 1 hr. The blot was then incubated overnight on a shaker in 5 ml of blocking buffer containing 0.2% Tween-20 and primary antibody, at room temperature. Anti-phospho-STAT3 antibody was used at a dilution of 1:500, the other 3 primary antibodies were used at a dilution of 1:1000.
Next day, the blot was washed 3 times for 10 min each with 10 mL of TBST followed by incubation on a shaker in 5 ml of blocking buffer containing 0.2% Tween-20 and 0.5 ul of the IRDye labeled secondary antibodies, diluted 1:10000, at room temperature for 1 hr. The blot was then washed 3 times for 10 min each with 10 mL of TBST and dried between sheets of paper towels. Imaging was done using LICOR's Odyssey imaging system, quantitation was done using their software, Image Studio version 3.1.
Materials and Methods: A549 or A375 cells were seeded in 6-well plates at an appropriate seeding density on day 0. On day 2 or 3, after checking the health and confluency of cells, the media was aspirated and replaced with 1 mL media containing a predetermined concentration of compound and incubated for 2 hours. After 2 hours, the media was aspirated, and the cells washed 2 times with cold PBS. Cells were lysed on ice, with 50 uL 1×CST lysis buffer +1 mM PMSF for 5 minutes. After 5 minutes, cells were removed using a scraper and transferred to cold 1.5 mL tubes, and centrifuged for 10 min, 4° C., 14,000×g. Supernatant was gently removed and snap frozen in liquid nitrogen. Protein concentration of the lysate was determined using Bradford Reagent (analyzed using SpectraMax M2E) and diluted to 1 mg/mL or pERK or 1.5 mg/mL for pMEK analysis. […] All dilutions were in Milk-free antibody diluent.
They were grown in T75 flasks in DMEM containing 10% FBS and Pen-Strep. at 37° C. in a humidified, 5% CO2 incubator. The adherent cells were grown to about 90% confluency, culture medium was aspirated, and the cell layer was rinsed with PBS. […] Eight mL media was added, cells were spun down at 1000 g for 5 minutes. Cell pellet was re-suspended in 10 mL media and an appropriate volume was inoculated into a new culture flask. Cells were plated in a 6-well plate at a density of 250,000-300,000 cells/well in 3 mL media and incubated 37° C. in a humidified, 5% CO2 incubator.

| Compound | A549-pERK (10 nM, 2 h) | A549-pERK 10 uM, 2 h | pERK:tERK (10 nM 2 h A549) (Phospho-ERK Screen in A549 (KRAS G12S), head 10 nM 2 h, title 10 μM for 2 hours) |
| --- | --- | --- | --- |
| CNS(=O)(=O)Nc1nccc(Cc2c(CN3CC(F)(F)C3)c3ccc(OC(=O)N(C)C)cc3oc2=O)c1F [Compound 149] | 69.1 |  |  |
| CNS(=O)(=O)Nc1cccc(Cc2c(CNC(=O)c3c[nH]nn3)c3ccc(OC(=O)N(C)C)cc3oc2=O)c1F [Compound 211] | 121 | 70.75 |  |
| CNS(=O)(=O)Nc1cccc(Cc2c(CN(C)c3cccc(Cl)c3)c3ccc(OC(=O)N(C)C)cc3oc2=O)c1F [Compound 95] | 80.2 |  |  |
| CNS(=O)(=O)Nc1cccc(Cc2c(CN3CC4(COC4)C3)c3ccc(OC(=O)N(C)C)cc3oc2=O)c1F [Compound 152] | 70.5 |  |  |
| CNS(=O)(=O)Nc1cccc(Cc2c(CNc3ccn[nH]3)c3ccc(OC(=O)N(C)C)cc3oc2=O)c1F [Compound 31] | 66.7 |  |  |
| CNS(=O)(=O)Nc1cccc(Cc2c(CC(=O)N(C)CC#N)c3ccc(OC(=O)N(C)C)cc3oc2=O)c1F [Compound 198] | 109 |  |  |
| CNS(=O)(=O)Nc1cccc(Cc2c(CNCCN(C)C)c3ccc(OC(=O)N(C)C)cc3oc2=O)c1F [Compound 58] | 98.7 and 108 |  |  |
| CNS(=O)(=O)Nc1cccc(Cc2c(CN(C)C)c3ccc(OC(=O)N4CCN(C)CC4)cc3oc2=O)c1F [Compound 127] | 110 |  |  |
| CNS(=O)(=O)Nc1cccc(Cc2c(CNC(=O)OCCO)c3ccc(OC(=O)N(C)C)cc3oc2=O)c1F [Compound 106] |  | 27.88 |  |
| CCC(=O)NCc1c(Cc2cccc(NS(=O)(=O)NC)c2F)c(=O)oc2cc(OC(=O)N(C)C)ccc12 [Compound 207] | 97.4 | 11.35 |  |
| CNS(=O)(=O)Nc1cccc(Cc2c(CN3CC(Cl)C3)c3ccc(OC(=O)N(C)C)cc3oc2=O)c1F [Compound 145] | 104 |  |  |
| CNS(=O)(=O)Nc1cccc(Cc2c(CN3CC(C(N)=O)C3)c3ccc(OC(=O)N(C)C)cc3oc2=O)c1F [Compound 173] | 97.7 |  |  |
| CNS(=O)(=O)Nc1cccc(Cc2c(CNCC(=O)N(C)C)c3ccc(OC(=O)N(C)C)cc3oc2=O)c1F [Compound 57] | 106 and 119 | 7.33 |  |
| CNS(=O)(=O)Nc1cccc(Cc2c(CNCC(=O)N(C)CC#N)c3ccc(OC(=O)N(C)C)cc3oc2=O)c1F [Compound 217] | 96.7 | 11.2 |  |
| CNS(=O)(=O)Nc1cccc(Cc2c(CN(C)C)c3ccc(Oc4ncccn4)cc3oc2=O)c1F [Compound 129] | 92.2 |  |  |
| CNS(=O)(=O)Nc1cccc(Cc2c(CNc3nccs3)c3ccc(OC(=O)N(C)C)cc3oc2=O)c1F [Compound 94] | 93.5 |  |  |
| CNS(=O)(=O)Nc1cccc(Cc2c(CNc3cn[nH]c3)c3ccc(OC(=O)N(C)C)cc3oc2=O)c1F [Compound 92] | 93.8 |  |  |
| CNS(=O)(=O)Nc1cccc(Cc2c(CN3CCC4(CN(C)C4)C3)c3ccc(OC(=O)N(C)C)cc3oc2=O)c1F [Compound 159] | 82.7 |  |  |
| CNS(=O)(=O)Nc1cccc(Cc2c(CN3CCN(C(C)C)CC3)c3ccc(OC(=O)N(C)C)cc3oc2=O)c1F [Compound 62] | 73 |  |  |
| CNS(=O)(=O)Nc1cccc(Cc2c(CC(=O)Nc3ccn[nH]3)c3ccc(OC(=O)N(C)C)cc3oc2=O)c1F [Compound 202] | 119 |  |  |

| Compound | A549-pERK (10 nM, 2 h) | A549-pERK 10 uM, 2 h | pERK:tERK (10 nM 2 h A549) (Phospho-ERK Screen in A549 (KRAS G12S), head 10 nM 2 h, title 10 μM for 2 hours) |
| --- | --- | --- | --- |
| CNS(=O)(=O)Nc1cccc(Cc2c(CN3CCN(C4CC4)CC3)c3ccc(OC(=O)N(C)C)cc3oc2=O)c1F [Compound 64] | 73 |  |  |
| CNS(=O)(=O)Nc1cccc(Cc2c(CNCCC(F)(F)F)c3ccc(OC(=O)N(C)C)cc3oc2=O)c1F [Compound 66] | 104 |  |  |
| CNS(=O)(=O)Nc1cccc(Cc2c(CN3CC(C)C3)c3ccc(OC(=O)N(C)C)cc3oc2=O)c1F [Compound 142] | 94.6 |  |  |
| CNS(=O)(=O)Nc1cccc(Cc2c(CN3CC(C)(C)C3)c3ccc(OC(=O)N(C)C)cc3oc2=O)c1F [Compound 143] | 104 |  |  |
| CNS(=O)(=O)Nc1cccc(Cc2c(CNCC(=O)N3CCNCC3)c3ccc(OC(=O)N(C)C)cc3oc2=O)c1F [Compound 191] | 131 | 8.6 |  |
| CCN(C)Cc1c(Cc2cccc(NS(=O)(=O)NC)c2F)c(=O)oc2cc(OC(=O)N(C)C)c(F)cc12 [Compound 261, 4-((ethyl(methyl)amino)methyl)-6-fluoro-3-(2-fluoro-3-((N-methylsulfamoyl)amino)benzyl)-2-oxo-2H-chromen-7-yl dimethylcarbamate] |  |  | 68 |
| CNS(=O)(=O)Nc1cccc(Cc2c(CN3CC(N(C)C)C3)c3ccc(OC(=O)N(C)C)cc3oc2=O)c1F [Compound 154] | 64 |  |  |
| CNS(=O)(=O)Nc1cccc(Cc2c(CNC(C)c3ccccc3)c3ccc(OC(=O)N(C)C)cc3oc2=O)c1F (stereo not drawn) [Compound 63] | 88 |  |  |
| CNS(=O)(=O)Nc1cccc(Cc2c(CNCc3cccc(C(F)(F)F)c3)c3ccc(OC(=O)N(C)C)cc3oc2=O)c1F [Compound 59] | 105 |  |  |
| CNS(=O)(=O)Nc1cccc(Cc2c(CNCc3ccncc3)c3ccc(OC(=O)N(C)C)cc3oc2=O)c1F [Compound 29] | 96 |  |  |
| CCN(CC)C(=O)Oc1ccc2c(CN(C)C)c(Cc3cccc(NS(=O)(=O)NC)c3F)c(=O)oc2c1 [Compound 126] | 91.4 |  |  |
| CNS(=O)(=O)Nc1cccc(Cc2c(CNCC(=O)Nc3ccccc3)c3ccc(OC(=O)N(C)C)cc3oc2=O)c1F [Compound 223] | 119 | 3.04 |  |
| CNS(=O)(=O)Nc1cccc(Cc2c(CN(C)c3ccccc3Cl)c3ccc(OC(=O)N(C)C)cc3oc2=O)c1F [Compound 99] | 98.9 |  |  |
| CNS(=O)(=O)Nc1cccc(Cc2c(CCNCC3CC3)c3ccc(OC(=O)N(C)C)cc3oc2=O)c1F [Compound 186] | 80.1 | 0.74 |  |
| CNS(=O)(=O)Nc1cccc(Cc2c(CNc3ccnn3C)c3ccc(OC(=O)N(C)C)cc3oc2=O)c1F [Compound 96] | 102 |  |  |
| CNS(=O)(=O)Nc1cccc(Cc2c(CNCC(=O)O)c3cc(Cl)c(OC(=O)N(C)C)cc3oc2=O)c1F [Compound 133] | 88.1 | 23.41 |  |
| CNS(=O)(=O)Nc1cccc(Cc2c(CNCCCCO)c3ccc(OC(=O)N(C)C)cc3oc2=O)c1F [Compound 71] | 99.4 |  |  |
| CNS(=O)(=O)Nc1cccc(Cc2c(CN3CCN(C)CC3)c3ccc(OC(=O)N(C)C)cc3oc2=O)c1F [Compound 15] | 73.8 |  |  |
| CNS(=O)(=O)Nc1cccc(Cc2c(CNCC(=O)N(C)c3ccccc3)c3ccc(OC(=O)N(C)C)cc3oc2=O)c1F [Compound 220] | 109 | 4.28 |  |

— patent US20250179057A1, “MEK IMMUNE ONCOLOGY INHIBITORS AND THERAPEUTIC USES THEREOF” (Immuneering Corporation, priority 2022, published 2025)
